Results as given in publication PMC9388906, “Dual inhibition of the Echinococcus multilocularis energy metabolism” (Frontiers in Veterinary Science, 2022).
Like-named read-outs stand apart in the source and are kept apart here.

Key:
[1] = tested on: E. multilocularis metacestodes (isolate Sval); assay: PGI assay (damage marker release), metacestodes, isolate Sval; assay type: cell-based, Echinococcus multilocularis; details: for cytotoxicity at 10 µM: Echinococcus multilocularis, 120 h, read-out: Metacestodes, PGI assay, relative to positive control Tx-100; for Activity in PGI assay (activity call): threshold >20% of Tx-100
Experimental: (§1) To assess the in vitro efficacy of ELQs against E. multilocularis, (a) the damage-marker phosphoglucose isomerase (PGI) assay was applied against metacestodes, and (b) the germinal layer (GL) cell viability assay was applied to measure effects on isolated GL cells. Both assays are described in more detail below. The drug testing strategy was as follows: PGI assay was first conducted for overview screening at 10 μM with the parasite isolates H95 and Sval. The GL cell viability assay was performed at 0.1 μM with both isolates H95 and Sval.
(§2) The PGI assay measures the amount of PGI that metacestodes release into the medium when damaged ([17], [32]). The purification and in vitro drug incubation of E. multilocularis metacestodes was conducted according to Stadelmann et al. ([32]). In short, cultures were applied for in vitro drug testing at the age of 6-8 weeks. E. multilocularis metacestodes were therefore purified by the addition of 2% saccharose and washed extensively with PBS. Purified metacestodes were suspended 1:3 with DMEM (without phenol red, supplemented with 100 U/mL penicillin, 100 μg/mL streptomycin) and distributed in 48-well plates (1 mL/well, thus 300 μL pure metacestode vesicles per well). […] The corresponding DMSO concentration was used as negative control and Tx-100 (0.1% final concentration) was used for total damage (positive control). […] After 5 days, relative PGI activities were measured and calculated as percentage of the Tx-100 control as described previously in Rufener et al. ([17]). They were calculated as mean values and standard deviations for each triplicate. […] EC50 measurements were performed twice, and averages and standard deviations of these repeated tests are given.

[2] = tested on: E. multilocularis metacestodes (isolate H95); assay: PGI assay (damage marker release), metacestodes, isolate H95; assay type: cell-based, Echinococcus multilocularis; details: for cytotoxicity at 10 µM: read-out: Metacestodes, PGI assay, relative to positive control Tx-100; for EC50: read-out: EC50 metacestodes
Experimental: as §1, §2

[3] = tested on: E. multilocularis GL cells (isolate Sval); assay: GL cell viability assay (CellTiter-Glo), isolate Sval; assay type: cell-based, Echinococcus multilocularis; details: for viability at 0.1 µM: Echinococcus multilocularis, 120 h, read-out: GL cells, viability via ATP measurements, relative to DMSO control
Experimental: as §1
(§3) The isolation of E. multilocularis GL cells was done as described previously ([17]) with minor modifications. Fifteen units of GL cells were distributed to each well of a 384 well plate in a total volume of 12.5 μL conditioned medium. The different ELQs were added to the wells to 0.1 μM, in quadruplicates. As a negative control 0.1% DMSO was used. The 384-well plate was incubated for 5 days at 37°C under humid nitrogen atmosphere. Thereafter, viability of the GL cells under different drug treatments was assessed by CellTiter-Glo® (Promega AG, Dübendorf, Switzerland). The CellTiter-Glo reagent was complemented with 1% Tx-100. The luciferase bioluminescence was measured at 530 nm by using the Enspire multilabel reader (PerkinElmer Life Sciences, Schwerzenbach, Switzerland). Using Microsoft Excel, the blank values were subtracted from the experimental values and the relative viability compared to DMSO was calculated. Viabilities were calculated as mean values and standard deviations for each quadruplicate.

[4] = tested on: E. multilocularis GL cells (isolate H95); assay: GL cell viability assay (CellTiter-Glo), isolate H95; assay type: cell-based, Echinococcus multilocularis; details: for viability at 0.1 µM: Echinococcus multilocularis, 120 h, read-out: GL cells, viability via ATP measurements, relative to DMSO control
Experimental: as §1, §3

[5] = tested on: Reuber rat hepatoma (Rh) cells; assay: Mammalian cell toxicity, Alamar Blue assay; assay type: cell-based
Experimental: Compounds were added in a serial dilution (30–0.23 μM, 1:2 dilution steps) and in triplicates. Plates were incubated at 37°C, 5% CO2 and humid atmosphere for 5 days. Resazurin was added to a final concentration of 10 mg/L to each well, and fluorescence measured at 530 nm on an Enspire multilabel plate reader over 3 h. By using Microsoft Office Excel 2010 and a logit-log transformation of the relative growth, IC50 values were calculated. The test was performed twice for each compound, and respective averages and standard deviations are given.

[6] = tested on: E. multilocularis metacestodes; set-up: method as in PMID 30396011; details: TEM of metacestodes; cited from earlier work
[7] = tested on: E. multilocularis metacestodes; assay: PGI assay, single and combination treatment under normoxic and anaerobic conditions; assay type: cell-based, Echinococcus multilocularis; details: 10 μM each; 5 days; anaerobic (0% O2)
Experimental: The PGI assay measures the amount of PGI that metacestodes release into the medium when damaged ([17], [32]). The purification and in vitro drug incubation of E. multilocularis metacestodes was conducted according to Stadelmann et al. ([32]). In short, cultures were applied for in vitro drug testing at the age of 6-8 weeks. E. multilocularis metacestodes were therefore purified by the addition of 2% saccharose and washed extensively with PBS. Purified metacestodes were suspended 1:3 with DMEM (without phenol red, supplemented with 100 U/mL penicillin, 100 μg/mL streptomycin) and distributed in 48-well plates (1 mL/well, thus 300 μL pure metacestode vesicles per well). […] The corresponding DMSO concentration was used as negative control and Tx-100 (0.1% final concentration) was used for total damage (positive control). […] After 5 days, relative PGI activities were measured and calculated as percentage of the Tx-100 control as described previously in Rufener et al. ([17]). They were calculated as mean values and standard deviations for each triplicate. EC50 calculations were calculated based on logit-log transformed values in Microsoft Office Excel 2010. EC50 measurements were performed twice, and averages and standard deviations of these repeated tests are given.
For double inhibition of the mitochondrial energy pathways of E. multilocularis, quinazoline as an inhibitor of the anaerobic MD ([29]) was applied in combination with ELQ-400 as an inhibitor of the ETC. Both compounds were tested either alone or in combination at 10 μM with the above-described PGI assay for 5 days for their activity against E. multilocularis metacestodes. PGI assays were done in triplicates and two times independently. […] Results of the assays were calculated as mean values and standard deviations for each biological triplicate were calculated as relative percentage to the Tx-100 control. To assess direct effects on the MD, succinate levels were measured in the supernatants of the PGI assay, as described below. […]

[8] = tested on: E. multilocularis metacestodes; assay: Succinate concentrations in culture supernatants (malate dismutation activity); assay type: cell-based, Echinococcus multilocularis; details: 10 μM; 5 days; anaerobic
Experimental: Both compounds were tested either alone or in combination at 10 μM with the above-described PGI assay for 5 days for their activity against E. multilocularis metacestodes. PGI assays were done in triplicates and two times independently. […] To assess direct effects on the MD, succinate levels were measured in the supernatants of the PGI assay, as described below. To determine whether differences between groups were significant, data was subjected to student's t-test analysis and P-values below 0.05 are given.
Succinate measurements in supernatants of drug-treated E. multilocularis metacestodes was performed with the “Succinic Acid Assay Kit” (Megazyme, Bray, Ireland). […] 20 μL of each diluted (1:20) sample or standard was used in triplicate for succinate measurements in 96-well plates (flat bottom, Greiner Bio-One GmbH, Frickenhausen, Germany). The reaction mix buffer was prepared as described in the supplier manual: per well 180 μL H2O, 20 μL solvent 1 (buffer, pH 8.4, sodium azide 0.02% w/v), 20 μL solvent 2 (NADH plus stabilizer), 20 μL solvent 3 (ATP, PEP, and CoA) and 2 μL solvent 4 (pyruvate kinase plus L-lactate dehydrogenase suspension) were added. After a 180 s pre-incubation time, a first measurement at 340 nm was done on an EnSpire multilabel plate reader (PerkinElmer Life Sciences, Schwerzenbach, Switzerland). 10 μL solvent 5 (succinyl-CoA synthetase suspension; 1:10 diluted) were then added to each well and the plate was read at 340 nm for 1 h every minute. […] Succinate levels are shown as mean values with standard deviations of biological triplicates. To determine whether differences between groups were significant, data was subjected to student's t-test analysis and P-values below 0.05 are given.

[9] = isolate Sval, 10 μM, 5 days, normoxic, mean (SD) of triplicates, active if >20%
[10] = Echinococcus multilocularis, 120 h, isolate H95, 10 μM, 5 days, normoxic, mean (SD) of triplicates, active if >20%
[11] = isolate Sval, 0.1 μM, 5 days, nitrogen atmosphere, mean (SD), active if <30%
[12] = isolate H95, 0.1 μM, 5 days, nitrogen atmosphere, mean (SD), active if <30%
[13] = Echinococcus multilocularis, 120 h
[14] = Echinococcus multilocularis, 120 h, isolate H95, PGI assay, 5 days, range tested 30–0.12 μM, mean (SD) of two tests
[15] = Rattus norvegicus, 120 h, confluent Rh cells, Alamar blue, 5 days, range tested 30–0.23 μM, mean (SD) of two tests, read-out: IC50 Rh confluent
[16] = Rattus norvegicus, 120 h, preconfluent Rh cells, Alamar blue, 5 days, range tested 30–0.23 μM, mean (SD) of two tests, read-out: IC50 Rh preconfluent
[17] = isolate H95, 10 μM, 5 days, normoxic, mean (SD) of triplicates, active if >20%

## CCCCCCCc1c(C)[nH]c2cc(OC)ccc2c1=O [ELQ-100]
[1]; [9]
  cytotoxicity at 10 µM: 0%
[2]; [10]
  cytotoxicity at 10 µM: 1.4%
[3]; [11]
  viability at 0.1 µM: 57.9%
[4]; [12]
  viability at 0.1 µM: 100%

## CCCCCCCc1c(C)[nH]c2cc(F)cc(F)c2c1=O [ELQ-121]
[1]
  cytotoxicity at 10 µM: 20.9%
[1]; isolate Sval, 10 μM
  Activity in PGI assay (activity call): activity
[2]; [13]
  EC50: 1.19 µM
  cytotoxicity at 10 µM: 15.2%
[3]
  viability at 0.1 µM: 7.3%
[4]
  viability at 0.1 µM: 1%
[5]; Rattus norvegicus, 120 h, read-out: IC50 Rh confluent
  IC50: > 30 µM
[5]; Rattus norvegicus, 120 h, read-out: IC50 Rh preconfluent
  IC50: > 30 µM

## CCCCCCCc1c(C)[nH]c2ccccc2c1=O [ELQ-127]
[1]; [9]
  cytotoxicity at 10 µM: 2.5%
[2]; [10]
  cytotoxicity at 10 µM: 11.7%
[3]; [11]
  viability at 0.1 µM: 40.4%
[4]; [12]
  viability at 0.1 µM: 17.2%

## CCCCCCCc1c(C)[nH]c2cccc(F)c2c1=O [ELQ-136]
[1]; [9]
  cytotoxicity at 10 µM: 7%
[2]; [10]
  cytotoxicity at 10 µM: 21.4%
[2]; [14]
  EC50: 0.22 µM
[3]; [11]
  viability at 0.1 µM: 15.1%
[4]; [12]
  viability at 0.1 µM: 8.4%
[5]; [15]
  IC50: > 30 µM
[5]; [16]
  IC50: > 30 µM

## Cc1[nH]c2ccccc2c(=O)c1-c1ccc(Oc2ccc(OC(F)(F)F)cc2)cc1 [ELQ-271]
[1]; [9]
  Metacestodes, PGI assay, relative to positive control Tx-100: 56.9 (4.3) %
[1]; isolate Sval, 10 μM
  Activity in PGI assay (activity call): activity
[2]; [17]
  Metacestodes, PGI assay, relative to positive control Tx-100: 33 (1.7) %
[2]; isolate H95, PGI assay, 5 days, range tested 30–0.12 μM, mean (SD) of two tests
  EC50: 0.24 µM
[3]; [11]
  GL cells, viability via ATP measurements, relative to DMSO control: 25.4 (7.2) %
[4]; [12]
  GL cells, viability via ATP measurements, relative to DMSO control: 2.7 (1.6) %
[5]; confluent Rh cells, Alamar blue, 5 days, range tested 30–0.23 μM, mean (SD) of two tests, read-out: IC50 Rh confluent
  IC50: > 30 µM
[5]; preconfluent Rh cells, Alamar blue, 5 days, range tested 30–0.23 μM, mean (SD) of two tests, read-out: IC50 Rh preconfluent
  IC50: 8.64 µM

## COc1cc2[nH]c(C)c(-c3ccc(Oc4ccc(OC(F)(F)F)cc4)cc3)c(=O)c2cc1Cl [ELQ-300]
[1]; [9]
  Metacestodes, PGI assay, relative to positive control Tx-100: 7.6 (1.1) %
[2]; [17]
  Metacestodes, PGI assay, relative to positive control Tx-100: 6.6 (2.2) %
[3]; [11]
  GL cells, viability via ATP measurements, relative to DMSO control: 46.9 (9.6) %
[4]; [12]
  GL cells, viability via ATP measurements, relative to DMSO control: 84.0 (7.0) %

## COc1cc2[nH]c(C)c(-c3ccc(Oc4ccc(OC(F)(F)F)cc4)cc3)c(=O)c2cc1F [ELQ-316]
[1]; [9]
  Metacestodes, PGI assay, relative to positive control Tx-100: 4.6 (1.3) %
[2]; [17]
  Metacestodes, PGI assay, relative to positive control Tx-100: 21.4 (0.1) %
[3]; [11]
  GL cells, viability via ATP measurements, relative to DMSO control: 58 (5.3) %
[4]; [12]
  GL cells, viability via ATP measurements, relative to DMSO control: 81.1 (9.5) %

## CCCCCCCc1c(C)[nH]c2cc(OC)c(F)cc2c1=O [ELQ-433]
[1]; [9]
  cytotoxicity at 10 µM: 1.8%
[2]; [10]
  cytotoxicity at 10 µM: 4.3%
[3]; [11]
  viability at 0.1 µM: 62.1%
[4]; [12]
  viability at 0.1 µM: 96.4%

## CCCCCCCCCCCc1c(C)[nH]c2cc(OC)c(Cl)cc2c1=O [ELQ-434]
[1]; [9]
  cytotoxicity at 10 µM: 0.6%
[2]; [10]
  cytotoxicity at 10 µM: 0.4%
[3]; [11]
  viability at 0.1 µM: 81.3%
[4]; [12]
  viability at 0.1 µM: 33.3%

## CCCCCCCCCCCc1c(C)[nH]c2cc(OC)c(F)cc2c1=O [ELQ-435]
[1]; [9]
  cytotoxicity at 10 µM: 0%
[2]; [10]
  cytotoxicity at 10 µM: 2.6%
[3]; [11]
  viability at 0.1 µM: 80.1%
[4]; [12]
  viability at 0.1 µM: 15.6%

## CCCCCCCCCCCc1c(C)[nH]c2ccccc2c1=O [ELQ-436]
[1]; [9]
  cytotoxicity at 10 µM: 3.1%
[2]; [10]
  cytotoxicity at 10 µM: 3.4%
[3]; [11]
  viability at 0.1 µM: 16.4%
[4]; [12]
  viability at 0.1 µM: 14%

## CCCCCCCCCCCc1c(C)[nH]c2cc(F)cc(F)c2c1=O [ELQ-437]
[1]; [9]
  cytotoxicity at 10 µM: 33.1%
[1]; isolate Sval, 10 μM
  Activity in PGI assay (activity call): activity
[2]; [10]
  cytotoxicity at 10 µM: 37.6%
[2]; [14]
  EC50: 1.71 µM
[3]; [11]
  viability at 0.1 µM: 19.1%
[4]; [12]
  viability at 0.1 µM: 19.7%
[5]; [15]
  IC50: > 30 µM
[5]; [16]
  IC50: > 30 µM

## CC(C)(C)[C@H]1CC[C@H](CC2=C(O)C(=O)c3ccccc3C2=O)CC1 [buparvaquone]
[6]
  Concentration already affecting the parasite ultrastructure (electron dense mitochondrial matrix): 0.3 µM

## c1ccc2ncncc2c1 [quinazoline, reference compound]
[7]
  PGI release of metacestodes relative to Tx-100: no PGI release
[8]
  Release of succinate by metacestodes compared to DMSO control: significant reduction
